“Also recorded” adds a separate entry of the source.
How the values were obtained:
Format in all cases: cell-based
[1] = system: citrate synthase of Pasteurella multocida; assay: Citrate synthase activity of bacteria after treatment; details: MT 1, 2, 3 mg/mL, 12 h; FIG. 15
Method: Based on the discovery of metabolomics, the enzyme activity of citrate synthase after melatonin treatment was studied. 1 mL of Pasteurella multocida (1×10^9 CFU) at the logarithmic growth stage was added into 100 mL of fresh and sterile Martin broth medium containing different concentrations (1 mg/mL, 2 mg/mL, and 3 mg/mL) of MT. Melatonin-free DMSO was used as a solvent control group, and the bacterial cells were cultured in a constant-temperature shaker at 37° C. and 220 rpm for 12 h. Thereafter, 1 mL of the bacterial solution was centrifuged at 3000 r/min for 10 minutes, and the supernatant and precipitated cells were collected, respectively. The citrate synthase activity was determined using a determination kit according to the protocol of the instructions. Each experiment was repeated for three times, and each group was set in triplicate. Further, 1 mL of Pasteurella multocida (1×10^9 CFU) at the logarithmic growth stage was added into 100 mL of fresh and sterile Martin broth medium containing different concentrations of melatonin and citric acid (MT-1 mg/mL, MT-2 mg/mL, MT-3 mg/mL, CA-1 mg/mL, CA-2 mg/mL, CA-3 mg/mL, MT-1 mg/mL-CA-1 mg/mL, MT-2 mg/mL-CA-2 mg/mL, MT-3 mg/mL-CA-3 mg/mL). […] The citrate synthase activity was determined using a determination kit according to the protocol of the instructions. […]

[2] = target: T1, citrate synthase in lung epithelial cells (Mus musculus, UniProt Q9CZU6); assay: Citrate synthase enzyme activity in lung epithelial cells; details: melatonin up to 40 mg/mL; 1MOI Pasteurella multocida, 12 h; FIG. 26
T1 construct: lysed by ultrasound at a low temperature, and then the enzyme activity of citrate synthase was analyzed; endogenous in cells; host or cells: mouse lung epithelial cells
Method: 2×10^5 mouse lung epithelial cells per well were inoculated into a 48-well microplate, and cultured in a 5% CO2 incubator at 37° C. until full confluence of the cells. The non-adherent cells were washed away with 1×PBS, and the cells were treated with melatonin with the final concentrations of 1, 2, 3, 10, 20 and 40 mg/ml, while the control group was treated with the same volume of DMSO. After melatonin treatment for 30 min, 1MOI Pasteurella multocida was added into the culture medium for continue culture. After 12 h, the bacterial cells were collected, lysed by ultrasound at a low temperature, and then the enzyme activity of citrate synthase was analyzed. For specific test steps, please refer to the kit for detecting the enzyme activity of the citrate synthase. Each experiment was repeated three times, and each group was set in hexaplicate.

Klebsiella pneumoniae = assay: Growth curve with melatonin and citric acid; details: MT 1-3 mg/mL, FIG. 27
Method: (§1) In additional studies, 1 mL of Klebsiella pneumoniae, Pseudomonas aeruginosa, Diplococcus pneumoniae and Streptococcus pneumoniae at the logarithmic growth stage was added into 100 mL of fresh and sterile Martin broth medium containing different concentrations of melatonin and citric acid (CA) (MT-1 mg/mL, MT-1 mg/mL-CA-1 mg/mL, MT-1 mg/mL-CA-2 mg/mL, MT-1 mg/mL-CA-3 mg/mL; MT-2 mg/mL, MT-2 mg/mL-CA-1 mg/mL, MT-2 mg/mL-CA-2 mg/mL, MT-2 mg/mL-CA-3 mg/mL; MT-3 mg/mL, MT-3 mg/mL-CA-1 mg/mL, MT-3 mg/mL-CA-2 mg/mL MT-3 mg/mL-CA-3 mg/mL).

Pseudomonas aeruginosa = assay: Growth curve with melatonin and citric acid; details: MT 1-3 mg/mL, FIG. 27
Method: as §1

T1 sequence (Q9CZU6 28-464): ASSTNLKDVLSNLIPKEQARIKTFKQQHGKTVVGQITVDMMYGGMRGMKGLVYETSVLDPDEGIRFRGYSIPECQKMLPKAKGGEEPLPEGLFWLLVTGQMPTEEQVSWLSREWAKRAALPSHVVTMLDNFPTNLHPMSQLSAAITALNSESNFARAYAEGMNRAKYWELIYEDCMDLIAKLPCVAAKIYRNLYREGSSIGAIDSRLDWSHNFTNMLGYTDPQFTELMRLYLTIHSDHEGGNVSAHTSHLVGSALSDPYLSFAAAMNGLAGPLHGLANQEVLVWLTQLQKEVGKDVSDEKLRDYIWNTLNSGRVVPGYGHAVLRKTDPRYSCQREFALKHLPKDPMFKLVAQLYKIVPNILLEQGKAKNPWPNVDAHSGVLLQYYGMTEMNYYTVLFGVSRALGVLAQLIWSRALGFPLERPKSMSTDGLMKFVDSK

With COc1ccc2[nH]cc(CCNC(C)=O)c2c1 [melatonin, N-acetyl-5-methoxytryptamine] the “activity of citrate synthase in the bacteria and the culture medium” value [1] was “significantly reduced; also recorded: significantly inhibiting”, the “enzyme activity of citrate synthase in lung epithelial cells” value [2] was “did not affect” and the antibacterial activity (Klebsiella pneumoniae) was “exhibits antibacterial activity”. The antibacterial activity (Pseudomonas aeruginosa) was “exhibits antibacterial activity”.
